Paper PMC10363080, “Modulatory Effect of Pyrus pyrifolia Fruit and its Phenolics on Key Enzymes against Metabolic Syndrome: Bioassay-Guided Approach, HPLC Analysis, and In Silico Study” (Plant Foods for Human Nutrition (Dordrecht, Netherlands), 2023)
Where two headings read alike, the source gives them in different places.

Tests used:
[1] = biological target: T1, porcine pancreatic lipase (Sus scrofa, UniProt P00591); test: Pancreatic lipase inhibitory activity; assay type: biochemical; conditions: isolated compounds, Table S7; read-out: Inhibition (IC50) Lipase
T1 construct: purchased Abnova
T1 sequence (P00591 1-450): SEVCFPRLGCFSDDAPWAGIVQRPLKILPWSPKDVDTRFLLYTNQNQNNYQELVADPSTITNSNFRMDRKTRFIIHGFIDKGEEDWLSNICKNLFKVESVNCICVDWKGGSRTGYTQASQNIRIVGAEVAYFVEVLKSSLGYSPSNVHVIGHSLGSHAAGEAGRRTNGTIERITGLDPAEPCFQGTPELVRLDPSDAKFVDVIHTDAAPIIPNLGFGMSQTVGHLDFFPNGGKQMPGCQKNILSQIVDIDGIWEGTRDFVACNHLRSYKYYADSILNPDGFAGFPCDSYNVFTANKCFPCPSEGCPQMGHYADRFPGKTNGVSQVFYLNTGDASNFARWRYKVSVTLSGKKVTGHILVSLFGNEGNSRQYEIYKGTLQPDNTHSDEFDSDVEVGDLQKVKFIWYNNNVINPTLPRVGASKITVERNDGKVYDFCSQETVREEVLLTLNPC
Experimental: (§1) Phenolic acids and flavonoids used in HPLC analysis as well as all other reagents for biological investigations were obtained from Sigma Chemical Company […]
(§2) Inhibitory activity against key enzymes related to metabolic syndrome (MS) All assays were performed in 96-well plates. Stock solutions of the extract (100 mg/mL), fractions (100 mg/mL), and isolated compounds (1000 µM) were prepared. Tested samples that exceeded […]
(§3) inhibitory concentration (IC50). The percentage of enzyme inhibition was calculated according to […]
% Inhibition = (A−B) − (C−D) x 100 […]
Pancreatic lipase inhibitory activity
The pancreatic lipase inhibitory activity was assessed using p-nitrophenyl dodecanoate (p-NPD) as substrate and porcine pancreatic lipase (Abnova, Taipei, Taiwan) which was described […]
previously. […] The tested samples were diluted in DMSO were incubated with 10 g L−1 PL (diluted in 0.05 mol L−1 Tris-HCl buffer pH 8.0, containing […]
in 0.5% TritonX 100) (m v−1) was added to initiate the reaction. The absorbances were measured

[2] = Oxygen radical absorbance capacity (ORAC) assay; conditions: for ORAC antioxidant activity: Trolox equivalent per gram of sample, mean ± SD, n=3; for ORAC AA (%) antioxidant activity percentage: compared to ascorbic acid (=100)
Experimental: (§4) all of analytical grade. An electrothermal 9100 (UK) was used for the determination of melting points (uncorrected). A Jenway model 6800 spectrophotometer was utilized for recording UV spectra. A Tecan, microplate reader, ((Infinite F50, Switzerland)) was used to measure the absorbances. A Bruker NMR system was used for 1H-NMR (400 MHz) and 13C-NMR (100 MHz).
(§5) The NMR spectra were determined in CD3OH and DMSO-d6. Chemical shifts are given in δ (ppm) relative to the internal standard TMS. Phenolic acids and flavonoids used in HPLC analysis as well as all other reagents for biological investigations were obtained from Sigma Chemical Company […]
(§6) Determination of the antioxidant activity
(§7) 2,2`-Azino-bis(3-ethylbenzothiazoline-6-sulfonic acid) (ABTS), ferric reducing antioxidant power (FRAP), and oxygen radical absorbance capacity (ORAC) assays were performed according to the previously published procedures. Ascorbic acid was used as a reference antioxidant […]
drug. […]

[3] = Ferric reducing antioxidant power (FRAP) assay; set-up: FRAP AA (%) antioxidant activity percentage: concentration or dose not given beside the values; conditions: for FRAP antioxidant activity: Trolox equivalent per gram of sample, mean ± SD, n=3; for FRAP AA (%) antioxidant activity percentage: compared to ascorbic acid (=100)
Experimental: as §4, §5, §6, §7
drug. […]

[4] = ABTS radical scavenging antioxidant assay; set-up: ABTS AA (%) antioxidant activity percentage: concentration or dose not given beside the values; conditions: for ABTS antioxidant activity: Trolox equivalent per gram of sample, mean ± SD, n=3; for ABTS AA (%) antioxidant activity percentage: compared to ascorbic acid (=100)
Experimental: as §4, §5, §6, §7
drug. […]

[5] = biological target: T2, α-glucosidase (Saccharomyces cerevisiae, UniProt P53341); test: biochemical; conditions: isolated compounds, Table S7
T2 construct: purchased Sigma
T2 sequence (P53341 whole entry): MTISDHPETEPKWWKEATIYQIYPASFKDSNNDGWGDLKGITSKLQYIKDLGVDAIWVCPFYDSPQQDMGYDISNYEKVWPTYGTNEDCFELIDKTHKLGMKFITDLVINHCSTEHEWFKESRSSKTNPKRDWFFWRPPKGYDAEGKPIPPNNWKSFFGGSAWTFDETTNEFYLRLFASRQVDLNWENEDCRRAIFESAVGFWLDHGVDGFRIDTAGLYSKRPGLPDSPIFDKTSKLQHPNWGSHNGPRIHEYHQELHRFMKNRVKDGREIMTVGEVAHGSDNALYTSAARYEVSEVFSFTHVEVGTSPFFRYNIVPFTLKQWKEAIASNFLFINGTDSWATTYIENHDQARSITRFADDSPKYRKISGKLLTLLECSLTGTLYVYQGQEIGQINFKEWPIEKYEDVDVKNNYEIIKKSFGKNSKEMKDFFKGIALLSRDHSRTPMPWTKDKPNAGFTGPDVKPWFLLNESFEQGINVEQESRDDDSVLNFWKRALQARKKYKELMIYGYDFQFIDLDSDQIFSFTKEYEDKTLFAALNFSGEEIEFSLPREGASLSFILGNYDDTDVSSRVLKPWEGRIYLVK
Experimental: as §1, §2, §3
% Inhibition = (A−B) − (C−D) x 100
A is the activity of the enzyme without tested samples, B is the control of A with neither tested samples nor enzyme, C, and D denote the activity of the test solutions with and without the tested […]
α-Glucosidase inhibitory activity
α-Glucosidase inhibition assays were performed according to a previously described method.
The tested samples were mixed with glutathione, α-glucosidase solution (Saccharomyces cerevisiae, EC 3.2.1.20, Sigma) in phosphate buffer , and the chromogenic substrate p-nitrophenyl-D-glucopyranoside (pNPG). Tested samples (50 μL) were incubated with α-glucosidase (100 μL.
0.6 U mL−1) in the presence of phosphate buffer (0.1 M, pH 6.9) for 10 min at 37 °C. Fifty μL of […] pNPG in phosphate buffer (pH 6.9) was added, and the mixture was incubated again for 12 min at 37 °C. Enzyme activity was evaluated by measuring ρ-nitrophenol release from the ρNPG […]
Absorbance at 405 nm was measured. […]

[6] = Inhibition (IC50) α-Glucosidase

Compound | IC50 [1] [nM] | ORAC antioxidant activity [2] [μM TE/g] | ORAC AA (%) antioxidant activity percentage [2] [%] | FRAP antioxidant activity [3] [μM TE/g] | FRAP AA (%) antioxidant activity percentage [3] [%] | ABTS antioxidant activity [4] [μM TE/g] | ABTS AA (%) antioxidant activity percentage [4] [%] | IC50 [5, 6] [nM] | IC50 ([5]; read-out: Inhibition (IC50) α-Glucosidase) [nM] | ORAC antioxidant activity ([2]; listed as Cinnamic acid (P6)) [μM TE/g] | FRAP antioxidant activity ([3]; listed as Cinnamic acid (P6)) [μM TE/g] | ABTS antioxidant activity ([4]; listed as Cinnamic acid (P6)) [μM TE/g]
C[C@@H]1O[C@@H](OC[C@H]2O[C@@H](Oc3c(-c4ccc(O)c(O)c4)oc4cc(O)cc(O)c4c3=O)[C@H](O)[C@@H](O)[C@@H]2O)[C@H](O)[C@H](O)[C@H]1O [P1, rutin] | 980 ± 670 | 266.30±0.75 | 68.25 | 99.28 ±0.98 | 63.96 | 180.29±1.08 | 62.64 |  |  |  |  | 
O=c1c(O[C@@H]2O[C@H](CO)[C@@H](O)[C@H](O)[C@H]2O)c(-c2ccc(O)c(O)c2)oc2cc(O)cc(O)c12 [P2, isoquercitrin] | 570 ± 30 | 346.28±0.29 | 88.74 | 137.27±0.53 | 88.44 | 240.75±0.28 | 83.66 | 1120 ± 380 |  |  |  | 
COc1cc(-c2oc3cc(O)cc(O)c3c(=O)c2O[C@@H]2O[C@H](CO)[C@@H](O)[C@H](O)[C@H]2O)ccc1O [P3, isorhamnetin-3-O-β-D-glucopyranoside] | 780 ± 750 | 320.78±0.55 | 82.21 | 125.08±0.72 | 80.58 | 229.71±0.38 | 79.82 |  | 1370 ± 860 |  |  | 
O=C(/C=C/c1ccc(O)c(O)c1)O[C@@H]1C[C@](O)(C(=O)O)C[C@@H](O)[C@H]1O [P4, chlorogenic acid] | 1310 ± 290 |  |  |  |  |  |  |  |  |  |  | 
O=C(O)/C=C/c1ccccc1 [P6, cinnamic acid] | 350 ± 520 | 362.55±1.20 | 92.91 | 141.26±0.91 | 91.01 | 250.28±0.21 | 86.97 | 750 |  | 362.55 ± 1.20 | 141.26 ± 0.91 | 250.28 ± 0.21
